Assay: Stability of pure lycopene isomers in n-hexane during storage at room temperature
Assay type: physicochemical
Settings: for concentration (% of total isomers) 5-Z / concentration (% of total isomers) 9-Z / concentration (% of total isomers) 13-Z / concentration (% of total isomers) all E / concentration (% of total isomers) x-Z: n-hexane, room temperature, absence of light
Method: Pure 5-Z, 9-Z, 13-Z and all-E lycopene were isolated from isomerised tomato oleoresin (submitted to 1 hour heating), by collecting the fractions containing the corresponding peaks after HPLC separation (see below the experimental conditions). Peaks were collected during two consecutive HPLC runs and the corresponding fractions were pooled.
Lycopene isomer profiles were determined by normal phase HPLC according to the method described by Schierle et al. (Schierle, J., Bretzel, W., Bühler, I., Faccin, N., Hess, D., Steiner, K., Schuep, W. (1997). Food. Chem. 59: 459). Samples of isomerized oleoresins were dissolved in n-hexane containing 50 ppm BHT and spun at maximum speed in an Eppendorf Lab centrifuge. The resulting supernatants were immediately analyzed by HPLC. The HPLC system used was a 1100 series Hewlett-Packard model equipped with an ultraviolet-visible photodiode array detector. Data were simultaneously acquired at 470 nm, 464 nm, 346 nm and 294 nm. Samples (10 μL) were separated using a combination of three Nucleosil 300-5 columns (4 mm internal diameter×250 mm length, Macherey-Nagel). […] Flow rate was 0.8 mL/min. Lycopene Z-isomers were identified according to literature data.
Amounts of lycopene isomers were calculated based on surface areas of the HPLC peaks using the same extinction coefficient as the all-E lycopene. Therefore, the lycopene concentration in products containing Z-isomers is slightly underestimated since it is recognized that the extinction coefficients of Z-isomers are lower than that of the all-E isomer.
Stability of lycopene isomers was investigated both in n-hexane and in a tomato oleoresin isomerized by 4 hour heating in ethyl acetate. For this purpose, pure lycopene isomers were stored for 33 days in n-hexane at room temperature and in the absence of light, and the isomerized tomato oleoresin was kept for 55 days at room temperature in the absence of light. Total lycopene concentration and lycopene isomer profiles were measured at various time intervals during the storage.

SMILES | concentration (% of total isomers) 5-Z (0 days) | concentration (% of total isomers) all E (0 days) | concentration (% of total isomers) x-Z (0 days) | concentration (% of total isomers) 5-Z (1 day) | concentration (% of total isomers) all E (1 day) | concentration (% of total isomers) x-Z (1 day) | concentration (% of total isomers) 5-Z (2 days) | concentration (% of total isomers) all E (2 days) | concentration (% of total isomers) x-Z (2 days) | concentration (% of total isomers) 5-Z (5 days) | concentration (% of total isomers) all E (5 days) | concentration (% of total isomers) x-Z (5 days) | concentration (% of total isomers) 5-Z (12 days) | concentration (% of total isomers) 9-Z (12 days) | concentration (% of total isomers) 13-Z (12 days) | concentration (% of total isomers) all E (12 days) | concentration (% of total isomers) x-Z (12 days) | concentration (% of total isomers) 5-Z (33 days) | concentration (% of total isomers) 9-Z (33 days) | concentration (% of total isomers) 13-Z (33 days) | other results
CC(C)=CCC/C(C)=C/C=C/C(C)=C/C=C/C(C)=C\C=C\C=C(C)\C=C\C=C(C)\C=C\C=C(/C)CCC=C(C)C [13-Z lycopene] | 0 % of total isomers | 2.4 % of total isomers | 1.0 % of total isomers | 0 % of total isomers | 42.6 % of total isomers | 0 % of total isomers | 0 % of total isomers | 59.8 % of total isomers | 1.5 % of total isomers | 1.9 % of total isomers | 68.9 % of total isomers | 4.3 % of total isomers | 5.3 % of total isomers | 2.6 % of total isomers | 20.8 % of total isomers | 65.5 % of total isomers | 5.8 % of total isomers | 11.7 % of total isomers | 4.2 % of total isomers | 16.9 % of total isomers | fraction of the isomer transformed / converted into other isomers (after 33 day storage in n-hexane at room temperature in the absence of light): more than 80%; concentration (% of total isomers) 9-Z (0 days): 0 % of total isomers; concentration (% of total isomers) 13-Z (0 days): 96.6 % of total isomers; concentration (% of total isomers) 9-Z (1 day): 0.4 % of total isomers; concentration (% of total isomers) 13-Z (1 day): 57.0 % of total isomers; concentration (% of total isomers) 9-Z (2 days): 0 % of total isomers; concentration (% of total isomers) 13-Z (2 days): 38.7 % of total isomers; concentration (% of total isomers) 9-Z (5 days): 1.5 % of total isomers; concentration (% of total isomers) 13-Z (5 days): 23.4 % of total isomers; concentration (% of total isomers) all E (33 days): 57.0 % of total isomers; concentration (% of total isomers) x-Z (33 days): 10.2 % of total isomers
CC(C)=CCC/C(C)=C/C=C/C(C)=C/C=C/C(C)=C/C=C/C=C(C)/C=C/C=C(C)/C=C/C=C(\C)CCC=C(C)C [all-E lycopene] | 0.5 % of total isomers | 97.6 % of total isomers | 0.1 % of total isomers | 1.2 % of total isomers | 86.0 % of total isomers | 1.5 % of total isomers | 2.6 % of total isomers | 78.4 % of total isomers | 3.0 % of total isomers | 3.8 % of total isomers | 69.3 % of total isomers | 5.1 % of total isomers | 6.4 % of total isomers | 2.0 % of total isomers | 18.2 % of total isomers | 67.8 % of total isomers | 5.6 % of total isomers | 13.4 % of total isomers | 3.8 % of total isomers | 15.7 % of total isomers | concentration (% of total isomers) 9-Z (0 days): 0.5 % of total isomers; concentration (% of total isomers) 13-Z (0 days): 1.4 % of total isomers; concentration (% of total isomers) 9-Z (1 day): 1.2 % of total isomers; concentration (% of total isomers) 13-Z (1 day): 10.1 % of total isomers; concentration (% of total isomers) 9-Z (2 days): 1.1 % of total isomers; concentration (% of total isomers) 13-Z (2 days): 15.0 % of total isomers; concentration (% of total isomers) 9-Z (5 days): 2.2 % of total isomers; concentration (% of total isomers) 13-Z (5 days): 19.6 % of total isomers; concentration (% of total isomers) all E (33 days): 58.7 % of total isomers; concentration (% of total isomers) x-Z (33 days): 8.4 % of total isomers
CC(C)=CCC/C(C)=C/C=C/C(C)=C\C=C\C(C)=C\C=C\C=C(C)\C=C\C=C(C)\C=C\C=C(/C)CCC=C(C)C [9-Z lycopene] | 1.8 % of total isomers | 4.4 % of total isomers | 0 % of total isomers | 2.1 % of total isomers | 5.8 % of total isomers | 2.8 % of total isomers | 11.6 % of total isomers | 6.0 % of total isomers | 5.9 % of total isomers | 1.5 % of total isomers | 5.6 % of total isomers | 8.6 % of total isomers | 2.3 % of total isomers | 66.5 % of total isomers | 8.2 % of total isomers | 7.0 % of total isomers | 15.9 % of total isomers | 4.1 % of total isomers | 56.0 % of total isomers | 10.5 % of total isomers | concentration (% of total isomers) 9-Z (0 days): 93.3 % of total isomers; concentration (% of total isomers) 13-Z (0 days): 0.6 % of total isomers; concentration (% of total isomers) 9-Z (1 day): 87.1 % of total isomers; concentration (% of total isomers) 13-Z (1 day): 2.3 % of total isomers; concentration (% of total isomers) 9-Z (2 days): 83.5 % of total isomers; concentration (% of total isomers) 13-Z (2 days): 3.1 % of total isomers; concentration (% of total isomers) 9-Z (5 days): 79.2 % of total isomers; concentration (% of total isomers) 13-Z (5 days): 5.2 % of total isomers; concentration (% of total isomers) all E (33 days): 9.8 % of total isomers; concentration (% of total isomers) x-Z (33 days): 19.7 % of total isomers
CC(C)=CCC\C(C)=C/C=C/C(C)=C/C=C/C(C)=C/C=C/C=C(C)/C=C/C=C(C)/C=C/C=C(\C)CCC=C(C)C [5-Z lycopene] | 95.5 % of total isomers | 1.1 % of total isomers | 3.4 % of total isomers | 84.3 % of total isomers | 2.2 % of total isomers | 13.5 % of total isomers | 76.9 % of total isomers | 2.4 % of total isomers | 20.6 % of total isomers | 68.4 % of total isomers | 3.9 % of total isomers | 27.7 % of total isomers | 65.3 % of total isomers | 0.7 % of total isomers | 1.7 % of total isomers | 5.6 % of total isomers | 26.7 % of total isomers | 53.5 % of total isomers | 2.3 % of total isomers | 2.8 % of total isomers | concentration (% of total isomers) all E (33 days): 10.7 % of total isomers; concentration (% of total isomers) x-Z (33 days): 30.7 % of total isomers

Source: US8216619B2, “Stable and bioavailable compositions of isomers of carotenoids for skin and hair” (Indena S.p.A., priority 2006, dated 2012)
